Assays:
human mGluR1 = human mGluR1 (Homo sapiens (Human), UniProt Q13255); assay: mGluR1 antagonism: L-glutamate induced intracellular calcium increases, FLIPR, CHO cells stably expressing human mGluR1; format: cell-based; conditions: inhibition of glutamate-induced elevation of intracellular calcium
Source text: Activity of compounds of the present invention with respect to mGluR1 antagonism was examined by an assay based on measurements of L-glutamate induced intracellular calcium increases using a 96 well plate-based Fluorometric Imaging Plate Reader (FLIPR), and CHO cells stably expressing human mGluR1. L-glutamate induced robust calcium responses via human mGluR1 in a concentration-dependent manner and in the low micromolar range. The table below represents IC50 values of the inhibition of the glutamate-induced elevation of the intracellular calcium concentration.

human mGluR5a receptors = human mGluR5a receptors (Homo sapiens (Human), UniProt P41594); assay: Inhibition of glutamate-induced elevation of intracellular calcium in L(tk−) cells expressing human mGluR5a receptors; format: cell-based; conditions: read-out: mGluR5 IC50
Sequence of human mGluR5a receptors (P41594 other isoform, or with tags, fused parts or gaps): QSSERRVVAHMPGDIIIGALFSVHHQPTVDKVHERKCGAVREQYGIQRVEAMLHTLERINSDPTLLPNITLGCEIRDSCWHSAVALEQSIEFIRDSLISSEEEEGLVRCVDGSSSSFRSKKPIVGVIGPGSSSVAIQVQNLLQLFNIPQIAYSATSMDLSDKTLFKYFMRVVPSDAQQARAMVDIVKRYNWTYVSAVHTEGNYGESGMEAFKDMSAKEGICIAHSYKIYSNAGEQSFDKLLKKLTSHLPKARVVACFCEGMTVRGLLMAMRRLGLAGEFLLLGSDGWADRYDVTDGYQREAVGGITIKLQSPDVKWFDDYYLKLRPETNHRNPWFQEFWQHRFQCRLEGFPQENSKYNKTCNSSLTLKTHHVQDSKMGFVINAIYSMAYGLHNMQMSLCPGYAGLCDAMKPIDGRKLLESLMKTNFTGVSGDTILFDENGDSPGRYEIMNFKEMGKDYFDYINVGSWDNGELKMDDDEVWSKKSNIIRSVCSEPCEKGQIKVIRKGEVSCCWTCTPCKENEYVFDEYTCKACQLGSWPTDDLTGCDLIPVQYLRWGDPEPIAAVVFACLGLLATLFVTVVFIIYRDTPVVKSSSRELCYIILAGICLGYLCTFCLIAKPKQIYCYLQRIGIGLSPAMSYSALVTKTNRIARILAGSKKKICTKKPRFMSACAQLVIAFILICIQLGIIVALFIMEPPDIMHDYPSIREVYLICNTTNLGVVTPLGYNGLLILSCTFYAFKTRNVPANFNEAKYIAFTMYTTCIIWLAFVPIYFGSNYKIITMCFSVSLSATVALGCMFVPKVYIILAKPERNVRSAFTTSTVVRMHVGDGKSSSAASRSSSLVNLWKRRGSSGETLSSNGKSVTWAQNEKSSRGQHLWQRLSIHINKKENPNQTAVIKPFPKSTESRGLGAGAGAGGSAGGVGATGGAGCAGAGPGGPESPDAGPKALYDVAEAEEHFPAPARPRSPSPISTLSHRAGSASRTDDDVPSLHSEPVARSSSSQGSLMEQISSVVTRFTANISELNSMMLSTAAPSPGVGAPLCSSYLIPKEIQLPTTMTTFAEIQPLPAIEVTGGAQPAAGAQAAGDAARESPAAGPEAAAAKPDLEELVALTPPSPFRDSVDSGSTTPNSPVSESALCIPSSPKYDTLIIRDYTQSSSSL
Source text: Activity of compounds of the present invention was examined by determination to what extent the glutamate-induced elevation of the intracellular calcium concentration in L(tk−) cells expressing human mGluR5a receptors (see L. P. Daggett et al., Neuropharm. Vol. 34, pages 871-886, 1995) is inhibited by utilizing methods as described e.g. by L. P. Daggett et al., Neuropharm. Vol. 34, pages 871-886 (1995) and P. J. Flor et al., J. Neurochem. Vol. 67, pages 58-63 (1996).
Activity of compounds of the present invention with respect to mGluR1 antagonism was examined by an assay based on measurements of L-glutamate induced intracellular calcium increases using a 96 well plate-based Fluorometric Imaging Plate Reader (FLIPR), and CHO cells stably expressing human mGluR1.

Sequence of human mGluR1 (Q13255 19-1194): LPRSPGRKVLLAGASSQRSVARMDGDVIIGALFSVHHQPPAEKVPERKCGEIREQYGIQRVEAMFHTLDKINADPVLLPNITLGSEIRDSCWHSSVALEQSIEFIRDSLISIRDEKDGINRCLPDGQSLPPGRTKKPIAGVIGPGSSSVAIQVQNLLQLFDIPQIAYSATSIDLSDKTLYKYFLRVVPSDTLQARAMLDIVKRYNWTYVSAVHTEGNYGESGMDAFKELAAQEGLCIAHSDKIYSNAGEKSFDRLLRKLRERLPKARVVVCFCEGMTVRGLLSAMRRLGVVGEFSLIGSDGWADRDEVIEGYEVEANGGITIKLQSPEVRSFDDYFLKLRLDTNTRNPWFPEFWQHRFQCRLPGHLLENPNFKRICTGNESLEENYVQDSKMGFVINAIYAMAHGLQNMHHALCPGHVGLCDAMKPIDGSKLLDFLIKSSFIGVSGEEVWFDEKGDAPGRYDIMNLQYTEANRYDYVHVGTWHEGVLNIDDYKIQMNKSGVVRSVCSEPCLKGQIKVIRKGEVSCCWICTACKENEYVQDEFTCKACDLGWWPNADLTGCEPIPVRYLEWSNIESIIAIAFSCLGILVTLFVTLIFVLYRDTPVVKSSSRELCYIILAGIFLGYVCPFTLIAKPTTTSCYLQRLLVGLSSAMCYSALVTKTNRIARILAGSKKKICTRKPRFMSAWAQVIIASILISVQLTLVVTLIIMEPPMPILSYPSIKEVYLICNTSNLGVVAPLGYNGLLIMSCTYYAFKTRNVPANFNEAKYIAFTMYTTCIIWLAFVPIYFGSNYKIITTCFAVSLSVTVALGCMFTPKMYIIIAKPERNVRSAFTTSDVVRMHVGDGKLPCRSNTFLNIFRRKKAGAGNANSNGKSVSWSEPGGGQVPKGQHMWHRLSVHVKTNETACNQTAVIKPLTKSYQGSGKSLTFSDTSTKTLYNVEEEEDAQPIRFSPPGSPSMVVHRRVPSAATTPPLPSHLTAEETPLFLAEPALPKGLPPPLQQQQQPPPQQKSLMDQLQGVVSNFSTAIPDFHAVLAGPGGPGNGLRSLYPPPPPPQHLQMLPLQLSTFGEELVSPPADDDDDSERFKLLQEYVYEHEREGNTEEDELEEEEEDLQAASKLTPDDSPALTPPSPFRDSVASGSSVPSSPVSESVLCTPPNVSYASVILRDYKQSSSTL

Compound | IC50 (human mGluR1) [nM] | IC50 (human mGluR5a receptors) [nM]
CCc1cn(C2=NCC(=O)N3CCc4c(cccc4C(C)O)C3=C2)cn1 (racemic) [Example 115, 2-(4-ethyl-1H-imidazol-1-yl)-9-(1-hydroxyethyl)-7,8-dihydro-[1,4]diazepino[7,1-a]isoquinolin-5(4H)-one] | > 10000 | 495
Cn1cc(C2=NCC(=O)N3CCc4c(I)cccc4C3=C2)cn1 [Example 32, 9-iodo-2-(1-methyl-1H-pyrazol-4-yl)-7,8-dihydro-[1,4]diazepino[7,1-a]isoquinolin-5(4H)-one] | 35 | 10
CCOCc1cn(C2=NCC(=O)N3CCc4c(cccc4-c4nc(C)cs4)C3=C2)cn1 [Example 88i, 2-(4-(ethoxymethyl)-1H-imidazol-1-yl)-9-(4-methylthiazol-2-yl)-7,8-dihydro-[1,4]diazepino[7,1-a]isoquinolin-5(4H)-one] | > 10000 | 340
Cc1nc(-c2cccc3c2CCN2C(=O)CN=C(n4cnc(C5CCC5)c4)C=C32)co1 [Example 108b, 2-(4-cyclobutyl-1H-imidazol-1-yl)-9-(2-methyloxazol-4-yl)-7,8-dihydro-[1,4]diazepino[7,1-a]isoquinolin-5(4H)-one] | 1920 | 23

Source: patent US9650377B2, “Diazepinone derivatives” (Novartis AG, priority 2012, dated 2017)
